Entries after “also recorded” stand apart in the source; their conditions may differ.
Legend:
[1] = tested on: mitochondria of U87-MG cells; assay: Mitotracker Red CMXRos mitochondrial phenotype imaging; format: cell-based, human; settings: 24 h, 2 or 4 μM
Method: To examine whether there was a change in the mitochondrial phenotype of cells following Y102 treatment, Mitotracker Red CMXRos, a fluorescent dye whose accumulation is dependent upon membrane […], was used.
The data for FIG. 7 was obtained as follows: U87-MG cells were plated on poly-L-lysine (Sigma) coated coverslips at a concentration of 50,000 cells/well in a 24-well plate and allowed to adhere overnight. Cells were treated for 24 h with DMSO, 2 μM Y102, 4 μM Y102, or 50 μM HCQ. 30 minutes prior to collection, cells were stained with 100 nM Mitotracker Red CMXRos (Cell Signaling Technology, red) in media at 37° C. Cells were fixed for 10 minutes with 4% methanol-free paraformaldehyde, permeabilized for 15 minutes with 0.5% Triton X-100, blocked with immunofluorescence buffer (2%[v/v] goat serum, 0.2%[v/v] Triton X-100 and 0.05%[w/v] sodium azide in PBS) for 1 h, and stained for 1 h at room temperature for the autophagy marker p62 using anti-p62/SQSTM-1 D-3 (Santa Cruz, 1:500, 1 h at room temperature). Following 3 washes with PBST, cells were stained with goat anti-mouse 488 (Jackson ImmunoResearch Laboratories) secondary antibody for 1 h (green; not shown). After an additional two washes with PBST, cell nuclei were stained with 0.33 μg/mL DAPI (Molecular Probes) for 5 minutes (blue). Coverslips were mounted on glass slides with ProLong Gold antifade medium. […]

[2] = tested on: BNIP3L/Nix in NF1+/+ and NF1−/− IMEC CRISPR cells; assay: BNIP3L/Nix immunofluorescence; format: cell-based; settings: 1 μM, 24 h, NF1−/− vs NF1+/+ IMEC CRISPR cells, vs DMSO
Source text: Mitochondria can also be removed via non-selective autophagy (21). To distinguish between inhibition of mitophagy and not non-selective autophagy, expression and localization of one mitophagy-specific receptors involved in […] mitophagy, BNIP3L/Nix, was examined via immunofluorescence (25) (FIG. 10). BNIP3 and its homologue BNIP3L/NIX are involved in hypoxia-induced mitophagy and are transcriptionally regulated through HIF in human cancers (27). BNIP3-mediated mitophagy is also reported to occur following perinuclear clustering and fragmentation of the mitochondria (28,29). Under hypoxic conditions, both BNIP3 and FUNDC1 are reported to localize to the outer mitochondrial membrane (30). Therefore, if mitophagy is inhibited with Y102 under hypoxic conditions, BNIP3, NIX/BNIP3L, and/or FUNDC1 should accumulate if Y102 inhibits […] mitophagy following receptor localization.
CRISPR technology was used to introduce mutated NF1 into mammalian IMEC cells in order to generate an isogenic system for the testing of compounds that mimics the yeast isogenic system used in the original screens.
The data for FIG. 10 was obtained as follows: NF1+/+ and NF1−/− IMEC CRISPR cells were plated on poly-L-lysine (Sigma) coated coverslips at a concentration of 50,000 cells/well in a 24-well plate and allowed to adhere overnight. […]

[3] = tested on: mitochondrial marker Tom20 in U87-MG cells; assay: Tom20 flow cytometry (mitochondrial fluorescence); format: cell-based, human; settings: 20 h, 2 or 2.75 μM
Method: The data for FIG. 8 was obtained as follows: U87-MG cells were plated at a concentration of 500,000 cells/well in a 6-well plate and allowed to adhere overnight. Cells were treated for 4 h with DMSO, followed by a 20 h cotreatment with DMSO, 2 μM Y102, 2.75 μM Y102, or 50 μM HCQ. Following treatment, cells were harvested using 0.25% trypsin, rinsed with PBS, and fixed for 20 minutes at 4° C. using BD Cytofix/Cytoperm fixation and permabilization solution (BD Biosciences). Following 2 washes with BD Perm/Wash buffer (BD Biosciences), cells were stained for 30 minutes at 4° C. in the dark for the mitochondrial marker Tom20 using anti-Tom20 FL-145 (Santa Cruz, 1:200). Following an additional 2 washes with BD Perm/Wash buffer, cells were stained with goat anti-rabbit 488 (Jackson ImmunoResearch Laboratories) secondary antibody for 30 minutes at 4° C. in the dark. Cells were washed twice with BD Perm/Wash buffer, resuspended in 0.5 mL PBS, and filtered prior to analysis. The cells were transferred to flow cytometry tubes and analyzed using a MacsQuant VYB 8-color flow cytometer. Tom20 fluorescence was detected using the B1-A (FITC) channel. 35,000 events/sample were collected and cellular debris was gated out of the dataset. Histograms were generated using the FlowLogic flow cytometry analysis software package.

[4] = tested on: ROS in U87-MG cells; assay: ROS detection by DCF-DA immunofluorescence; format: cell-based, human; settings: Y102 2.2 or 4.5 μM 24 h, S1 20 μM 1 h, vs DMSO
Method: Damaged mitochondria generate and accumulate reactive oxygen species (ROS), which are damaging to the cell. RAS dysregulated tumors are reported to depend on autophagy in order to remove the damaged mitochondria and allow for their survival (22). […] The ROS detection reagent DCF-DA, which is converted to its fluorescent form DCF upon ROS-mediated oxidation, was used to examine if ROS levels increase with Y102 treatment.
The data for FIG. 5 was obtained as follows: U87-MG cells were plated on poly-D-lysine (Neuvitro Corporation) coated coverslips at a concentration of 50,000 cells/well in a 24-well plate and allowed to adhere overnight. Cells were treated for 24 h with DMSO, 2.2 μM Y102, or 4.5 μM Y102, or for 1 h with 20 μM S1. 30 minutes prior to treatment end, cells were stained with 20 μM 2′, 7′-dichlorofluorescin diacetate (DCFDA, Sigma, green) at 37° C. Following staining, cells were fixed for 10 minutes with 3.7% formaldehyde. After an additional two washes with PBST, cell nuclei were stained with 0.33 μg/mL DAPI (Molecular Probes) for 30 minutes (blue). Coverslips were mounted on glass slides with ProLong Gold antifade medium. Wide-field images were taken with a Zeiss Imager Z1 wide-field microscope using a 40×1.3 NA EC Plan-NEOFLUAR objective and Zeiss Axiovision software. Scale bar, 20 μm.

Cn1cnnc1S/C=C/C(=O)c1ccc(F)cc1 [Y102]
mitochondrial phenotype (Mitotracker Red CMXRos) [1]: altered mitochondrial phenotype; also recorded: perinuclear clustering of the mitochondria
mitochondrial phenotype (Mitotracker Red CMXRos) ([1]; listed as Y1022): perinuclear accumulation of the mitochondria
BNIP3L/Nix accumulation (mitophagy receptor) [2]: perinuclear clustering of the mitophagy receptor BNIP3L/NIX was observed; also recorded: accumulated with Y102 treatment moreso in NF1−/− cells than in NF1+/+ cells
mitochondrial fluorescence / accumulation (Tom20) [3]: increase in mitochondrial fluorescence; also recorded: accumulation of the mitochondria
ROS accumulation (DCF-DA) [4]: ROS were found to accumulate; also recorded: accumulation of ROS

Source: patent US9873705B2, “Vinylogous thioester compounds and methods of use” (THE TRUSTEES OF DARTMOUTH COLLEGE, priority 2015, dated 2018)
